Data as given in US12595253B2, “Benzamides of pyrazolylamino-pyrimidinyl derivatives, and compositions and methods thereof” (LYNK PHARMACEUTICALS CO. LTD., priority 2019, dated 2026).
pIC50: −log10 of the molar value.

Legend:
JAK1 = biological target: T1, JAK1 (Homo sapiens, UniProt P23458); assay: JAK1 microfluidic kinase assay (Caliper EZ Reader II, FAM labeled peptide substrate); type: biochemical; settings: IC50 JAK1 (5 nM) (1 m MATP), JAK1 5 nM, 1 mM ATP
T1 construct: purchased Carna Biosciences
Summary of the method: (§1)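 3-fold serial dilutions, top 5 μM, 1% DMSO final; 10 min preincubation with enzyme, RT. Buffer: 50 mM HEPES, 0.01% Brij35, 10 mM MgCl2, 2 mM DTT. Enzyme batch tuned to 10% peptide conversion. EDTA stop, mobility-shift readout, IC50 fit.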

JAK2 = biological target: T2, JAK2 (Homo sapiens, UniProt O60674); assay: JAK2 microfluidic kinase assay (Caliper EZ Reader II, FAM labeled peptide substrate); type: biochemical
T2 construct: purchased Carna Biosciences
Summary of the method: as §1

TYK2 = biological target: T3, TYK2 (Homo sapiens, UniProt P29597); assay: TYK2 microfluidic kinase assay (Caliper EZ Reader II, FAM labeled peptide substrate); type: biochemical; settings: IC50 TYK2 ([…]) (1 mM ATP), TYK2 […], 1 mM ATP
T3 construct: purchased Carna Biosciences
Summary of the method: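 Human JAK enzymes in 50 mM HEPES, 0.01% Brij35, 10 mM MgCl2, 2 mM DTT, tuned to 10% conversion of FAM-peptide; compounds (3-fold dilutions, top 5 μM, 1% DMSO) pre-incubated 10 min. Reaction times: JAK1 120 min, JAK2 20 min, JAK2V617F 30 min, TYK2 10 min; EDTA stop, microfluidic conversion read, IC50 from % inhibition curves.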

[1] = Liver microsomes study, Phase I stability (RLM); type: in vitro ADME, rat; settings: pH 7.4; rat liver microsomes 0.5 mg/mL, 1 μM test article; read-out: RLM Clint
Summary of the method: (§2)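 Phase I turnover was followed by LC/MS/MS of parent compound remaining at 0, 10, 30 and 90 min in NADPH-fortified rat or human microsomes, with cold acetonitrile quench. Half-life and intrinsic clearance were derived from the log-linear depletion slope and the inverse protein concentration.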

[2] = Liver microsomes study, Phase I stability (HLM); type: in vitro ADME, human; settings: pH 7.4; human liver microsomes 0.5 mg/mL, 1 μM test article; read-out: HLM Clint
Summary of the method: as §2

[3] = Mini-pig dermal pharmacokinetic study; type: in vivo, Guangxi Bama mini-pigs; settings: topical administration
Excerpt: The aim of this study was to obtain the topical distribution of test articles in mini-pig after topical administration. Test articles were formulated in 50% PEG400, 10% transcutol and 40% PEG3350 (50% in water), and then applied to male Guangxi Bama mini-pigs (17-20 kg). Twenty-four hour prior to dosing, the hair of the mini-pig was shaved in left and right sides of the back. Two areas at least 5 cm apart at each side of the back were exposed (a total of four areas, each of which was about 112 cm^2). At the time zero, the test article was dosed to the exposed skins with […]. After dosing, the blood and skin samples were collected at 0.5, 1, 3, 6 hour. The blood was taken via venipuncture, and collected to the tubes containing heparin sodium as the anticoagulant. Exposed skin was washed with soap and water before skin sample was collected. Upon the dosed skin the punch biopsy from the epidermis layer to the muscle layer were taken at each time point. Epidermis, dermis, subcutis and subcutaneous muscle were quickly separated, weighed and frozen in dry ice. Epidermis and dermis were homogenized in 1:3 (w/v) normal saline. Homogenized samples were extracted with 3 fold volumes of acetonitrile and quantified against a standard curve with LC-MS/MS system.

JAK2V617F = biological target: T4, JAK2V617F (Homo sapiens, UniProt O60674, V617F); assay: JAK2V617F microfluidic kinase assay (Caliper EZ Reader II, FAM labeled peptide substrate); type: biochemical; settings: JAK2V617F 2.5 nM, 1 mM ATP
T4 construct: purchased Carna Biosciences
Summary of the method: as §1

FLT3D835Y = biological target: T5, FLT3D835Y (Homo sapiens, UniProt P36888, D835Y); assay: FLT3D835Y microfluidic kinase assay; type: biochemical
T5 construct: purchased Carna Biosciences
T5 sequence (P36888 27-993 D835Y): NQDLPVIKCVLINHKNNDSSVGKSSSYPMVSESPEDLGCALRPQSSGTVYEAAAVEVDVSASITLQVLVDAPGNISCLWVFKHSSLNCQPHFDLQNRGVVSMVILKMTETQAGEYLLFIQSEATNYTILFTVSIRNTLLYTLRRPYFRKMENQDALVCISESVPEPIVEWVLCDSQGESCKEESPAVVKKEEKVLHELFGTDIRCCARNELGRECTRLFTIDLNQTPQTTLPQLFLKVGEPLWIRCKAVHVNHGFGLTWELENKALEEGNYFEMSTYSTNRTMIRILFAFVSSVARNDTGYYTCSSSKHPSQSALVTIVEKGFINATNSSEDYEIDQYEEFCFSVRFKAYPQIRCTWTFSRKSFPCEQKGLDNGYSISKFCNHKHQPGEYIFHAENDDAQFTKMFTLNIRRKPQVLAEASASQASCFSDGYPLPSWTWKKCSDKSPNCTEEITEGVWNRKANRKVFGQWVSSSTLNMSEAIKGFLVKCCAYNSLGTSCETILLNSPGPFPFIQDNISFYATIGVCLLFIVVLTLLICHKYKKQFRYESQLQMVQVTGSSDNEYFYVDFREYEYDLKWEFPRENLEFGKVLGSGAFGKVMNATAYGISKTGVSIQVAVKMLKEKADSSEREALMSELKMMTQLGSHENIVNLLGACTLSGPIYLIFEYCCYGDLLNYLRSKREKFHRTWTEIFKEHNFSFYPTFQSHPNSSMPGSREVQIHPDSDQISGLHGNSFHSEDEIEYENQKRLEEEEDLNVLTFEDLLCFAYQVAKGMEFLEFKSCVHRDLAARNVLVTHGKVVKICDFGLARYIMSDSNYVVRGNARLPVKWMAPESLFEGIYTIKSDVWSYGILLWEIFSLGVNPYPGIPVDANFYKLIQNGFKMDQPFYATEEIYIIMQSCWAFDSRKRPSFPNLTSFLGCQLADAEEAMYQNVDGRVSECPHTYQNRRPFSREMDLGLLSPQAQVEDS
Protocol: Compounds were tested against FLT3, FLT3ITD and FLT3D835Y.
Assay Formats: FLT3 activity was determined in the reaction buffer 50 mM HEPES, 10 mM MgCl2 and 2 mM DTT by a microfluidic assay. The phosphorylation of a FAM labeled peptide substrate was monitored in the Caliper EZ Reader II (Perkin Elmer). The assay condition for each batch of enzyme (Carna Biosciences) was optimized to obtain 10% conversion rate of peptide substrate.
The test compounds were dissolved in DMSO to a stock concentration of 10 mM. 3-fold serially diluted compounds with top concentration of 5 μM were pre-incubated with FLT3, FLT3ITD or FLT3D835Y for 10 min at ambient temperature. The final DMSO concentration of assay mixture was 1%. […] The reaction was stopped by adding 50 mM EITA. The reaction time for FLT3, FLT3ITD and FLT3D8335Y was 30 min, 40 min and 40 min, respectively.
And the well without compound but with equivalent DMSO was defined as no inhibition. The percent inhibition was calculated by the following formula. % Inhibition=(Conversionmax−Conversionsample)/(Conversionmax−Conversionmin)*100 • Conversionmax means the conversion rate in the positive well without addition of compound • Conversionmin means the conversion rate in the well without addition of enzyme • Conversionsample means the conversion rate of test compounds
The dose-response (percent inhibition) curve was plotted and IC50 values were determined by GraphPad software.

[4] = Rat pharmacokinetic study (intravenous and oral); type: in vivo; settings: male, plasma, Sprague-Dawley rats, solution
Protocol: Pharmacokinetic profile of test articles in rodent were evaluated in fasted male ICR mouse and Sprague-Dawley rats. […] Typically, mice were dosed with 2 mg/kg and 10 mg/kg by intravenous injection and oral gavage, respectively. Rats were dosed with 1 mg/kg and 5 mg/kg by intravenous injection and oral gavage, respectively. Beagle dogs were dosed with 1 mg/kg and 5 mg/kg by intravenous injection and oral gavage, respectively. After dosing, blood samples were collected at each time point. For IV injection group, time points were set at 5, 15, 30 min, and then 1, 2, 4, 8 and 24 hours after dosing. For oral gavage group, timepoints were set at 15, 30 m, and then 1, 2, 4, 8, and 24 hours. Blood was collected into appropriately labeled tubes containing K2EDTA as the anticoagulant. Plasma was obtained within 1 hours of blood collection by centrifugation at 8000×g and 4° C. for 6 minutes, and then stored at −20° C. until analyzed by LCMS/MS for quantification.

[5] = Rat pharmacokinetic study (intravenous and oral); type: in vivo; settings: Sprague-Dawley rats, oral, solution
[6] = IC50 JAK2 ([…]) (1 mM ATP), 1 mM ATP

T1 sequence (P23458 whole entry): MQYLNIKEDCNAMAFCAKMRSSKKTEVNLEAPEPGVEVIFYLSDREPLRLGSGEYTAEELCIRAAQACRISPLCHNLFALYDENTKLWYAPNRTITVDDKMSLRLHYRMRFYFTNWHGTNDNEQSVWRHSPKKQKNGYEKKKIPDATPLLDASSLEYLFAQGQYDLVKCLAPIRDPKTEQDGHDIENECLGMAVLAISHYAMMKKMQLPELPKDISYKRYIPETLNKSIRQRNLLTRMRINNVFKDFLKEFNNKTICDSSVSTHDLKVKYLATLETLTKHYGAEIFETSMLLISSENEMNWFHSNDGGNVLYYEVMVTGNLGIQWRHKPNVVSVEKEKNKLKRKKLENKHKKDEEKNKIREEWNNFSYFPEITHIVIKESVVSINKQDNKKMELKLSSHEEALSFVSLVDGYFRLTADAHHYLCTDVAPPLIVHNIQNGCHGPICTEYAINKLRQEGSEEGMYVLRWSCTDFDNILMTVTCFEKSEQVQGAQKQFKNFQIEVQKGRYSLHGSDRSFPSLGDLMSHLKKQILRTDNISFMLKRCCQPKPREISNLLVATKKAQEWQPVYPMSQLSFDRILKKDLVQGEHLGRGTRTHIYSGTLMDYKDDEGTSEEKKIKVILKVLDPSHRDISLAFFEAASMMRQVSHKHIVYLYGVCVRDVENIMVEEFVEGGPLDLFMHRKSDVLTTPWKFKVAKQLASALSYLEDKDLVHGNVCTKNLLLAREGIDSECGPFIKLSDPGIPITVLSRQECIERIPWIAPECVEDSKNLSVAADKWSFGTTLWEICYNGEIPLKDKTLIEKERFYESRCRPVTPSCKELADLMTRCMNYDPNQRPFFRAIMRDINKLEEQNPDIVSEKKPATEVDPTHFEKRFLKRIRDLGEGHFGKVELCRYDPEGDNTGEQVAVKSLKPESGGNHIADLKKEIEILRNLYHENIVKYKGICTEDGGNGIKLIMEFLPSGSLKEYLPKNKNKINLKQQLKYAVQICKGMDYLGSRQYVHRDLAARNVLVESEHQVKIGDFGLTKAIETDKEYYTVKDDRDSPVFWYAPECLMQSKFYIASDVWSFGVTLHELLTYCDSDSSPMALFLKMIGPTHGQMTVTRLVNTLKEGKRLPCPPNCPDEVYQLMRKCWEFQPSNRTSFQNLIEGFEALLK
T2 sequence (O60674 whole entry): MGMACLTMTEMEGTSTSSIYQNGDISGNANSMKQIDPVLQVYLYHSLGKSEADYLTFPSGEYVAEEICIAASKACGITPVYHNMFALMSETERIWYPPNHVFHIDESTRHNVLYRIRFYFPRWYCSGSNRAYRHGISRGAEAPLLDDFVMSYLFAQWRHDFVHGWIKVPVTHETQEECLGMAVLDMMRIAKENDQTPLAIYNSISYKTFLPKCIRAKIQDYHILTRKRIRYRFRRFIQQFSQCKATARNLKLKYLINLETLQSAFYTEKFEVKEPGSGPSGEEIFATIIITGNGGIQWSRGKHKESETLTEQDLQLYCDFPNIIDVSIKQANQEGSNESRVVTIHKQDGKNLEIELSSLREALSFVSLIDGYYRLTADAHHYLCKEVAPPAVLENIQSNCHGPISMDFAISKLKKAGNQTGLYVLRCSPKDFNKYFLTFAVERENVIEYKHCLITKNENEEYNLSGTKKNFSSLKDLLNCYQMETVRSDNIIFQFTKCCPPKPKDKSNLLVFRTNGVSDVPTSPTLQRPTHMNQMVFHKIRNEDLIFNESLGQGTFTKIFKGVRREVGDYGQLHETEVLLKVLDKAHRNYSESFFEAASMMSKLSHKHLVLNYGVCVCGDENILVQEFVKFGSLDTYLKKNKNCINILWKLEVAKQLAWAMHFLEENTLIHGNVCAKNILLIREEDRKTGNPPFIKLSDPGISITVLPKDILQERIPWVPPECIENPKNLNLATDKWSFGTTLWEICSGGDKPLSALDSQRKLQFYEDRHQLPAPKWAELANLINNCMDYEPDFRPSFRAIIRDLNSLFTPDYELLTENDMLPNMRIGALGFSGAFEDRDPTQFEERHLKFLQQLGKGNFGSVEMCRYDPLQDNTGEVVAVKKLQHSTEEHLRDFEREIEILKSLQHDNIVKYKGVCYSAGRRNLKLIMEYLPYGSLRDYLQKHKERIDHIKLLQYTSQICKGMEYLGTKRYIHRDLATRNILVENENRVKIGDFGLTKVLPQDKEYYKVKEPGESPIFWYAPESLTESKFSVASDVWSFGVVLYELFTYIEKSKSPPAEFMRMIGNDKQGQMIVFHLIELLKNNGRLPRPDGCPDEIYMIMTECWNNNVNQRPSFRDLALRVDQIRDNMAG
T4 sequence (O60674 whole entry V617F): as the sequence (O60674 whole entry) above, with V617F counted along it
T3 sequence (P29597 whole entry): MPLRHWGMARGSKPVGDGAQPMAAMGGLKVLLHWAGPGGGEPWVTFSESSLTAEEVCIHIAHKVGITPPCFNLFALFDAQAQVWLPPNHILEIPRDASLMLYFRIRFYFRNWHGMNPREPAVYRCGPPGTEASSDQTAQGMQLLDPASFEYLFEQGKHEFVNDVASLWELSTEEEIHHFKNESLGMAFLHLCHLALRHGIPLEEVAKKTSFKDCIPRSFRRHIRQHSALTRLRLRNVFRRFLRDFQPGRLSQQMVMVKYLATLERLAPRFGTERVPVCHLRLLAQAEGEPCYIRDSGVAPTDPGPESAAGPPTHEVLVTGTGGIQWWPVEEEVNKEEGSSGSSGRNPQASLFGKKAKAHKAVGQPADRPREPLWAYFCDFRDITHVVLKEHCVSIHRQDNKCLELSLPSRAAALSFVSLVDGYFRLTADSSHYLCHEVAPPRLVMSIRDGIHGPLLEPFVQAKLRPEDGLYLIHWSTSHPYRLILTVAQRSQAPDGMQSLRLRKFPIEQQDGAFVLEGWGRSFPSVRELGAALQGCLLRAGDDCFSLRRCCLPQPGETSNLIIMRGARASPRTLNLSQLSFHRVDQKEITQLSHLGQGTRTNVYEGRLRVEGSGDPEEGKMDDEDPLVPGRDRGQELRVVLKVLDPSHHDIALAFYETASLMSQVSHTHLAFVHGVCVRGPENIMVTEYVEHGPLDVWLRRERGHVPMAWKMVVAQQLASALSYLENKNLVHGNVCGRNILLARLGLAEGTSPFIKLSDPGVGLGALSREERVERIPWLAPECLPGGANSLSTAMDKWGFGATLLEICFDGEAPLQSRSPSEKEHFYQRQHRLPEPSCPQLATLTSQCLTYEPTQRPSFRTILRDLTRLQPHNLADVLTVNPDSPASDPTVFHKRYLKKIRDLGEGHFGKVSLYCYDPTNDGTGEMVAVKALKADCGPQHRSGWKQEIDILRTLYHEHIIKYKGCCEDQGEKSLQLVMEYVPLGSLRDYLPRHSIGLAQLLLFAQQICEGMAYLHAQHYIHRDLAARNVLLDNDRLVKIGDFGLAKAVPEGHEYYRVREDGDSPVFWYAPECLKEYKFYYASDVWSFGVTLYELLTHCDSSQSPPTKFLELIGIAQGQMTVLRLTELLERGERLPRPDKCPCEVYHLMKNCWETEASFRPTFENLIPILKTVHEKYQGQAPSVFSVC

Compound | pIC50 (JAK1) | pIC50 (JAK2; [6]) | microsomal CLint at 1 μM [1] | microsomal CLint at 1 μM [2] | pIC50 (JAK2V617F) | pIC50 (FLT3D835Y) | AUC ([4]; intravenous, 1 mg/kg) | Vd ([4]; intravenous, 1 mg/kg) | clearance ([4]; intravenous, 1 mg/kg) | half-life ([4]; intravenous, 1 mg/kg) | also measured
Cc1cnc(Nc2cnn(C3CC(C)(C)OC(C)(C)C3)c2)nc1-c1ccc(C(=O)N[C@@H](C)C#N)cc1 [Example 173, (S)—N-(1-cyanoethyl)-4-(5-methyl-2-((1-(2,2,6,6-tetramethyltetrahydro-2H-pyran-4-yl)-1H-pyrazol-4-yl)amino)pyrimidin-4-yl)benzamide] | 7.82 | > 9.60 | 69.4 µL/min/mg | 456 µL/min/mg | – | – | – | – | – | – | pIC50 (TYK2): 8.97; AUC(0-t) ([3]; male, Guangxi Bama, minipig, topical or ocular, 25 μL/m^2 at 6 ml/mL, plasma, read-out: Plasma AUC0-last): 17.3 ng·h/mL; Dermis/plasma ratio (AUC) [3]: 273X; Epiermis/plasma ratio (AUC) [3]: 4396X
Cc1cnc(Nc2cnn(C3CCN(C(=O)C4(C)CC4)CC3)c2)nc1-c1ccc(C(=O)NCC#N)cc1 [Example 38, N-(cyanomethyl)-4-(5-methyl-2-((1-(1-(1-methylcyclopropanecarbonyl)piperidin-4-yl)-1H-pyrazol-4-yl)amino)pyrimidin-4-yl)benzamide] | 7.89 | > 9.60 | 61 µL/min/mg | 77.2 µL/min/mg | > 9.60 | 8.10 | 2880 ng·h/mL | 0.28 L/kg | 6.3 mL/min/kg | 33.6 min | AUC ([4]; oral, 5 mg/kg): 1170 ng·h/mL; Cmax ([4]; oral, 5 mg/kg): 924 ng/mL; half-life ([4]; oral, 5 mg/kg): 84 min; F ([5]; 5 mg/kg): 8.36%
C[C@@H](C#N)NC(=O)c1ccc(-c2nc(Nc3cnn(C4CCOCC4)c3)ncc2Cl)cc1 [Example 39, (S)-4-(5-chloro-2-((1-(tetrahydro-2H-pyran-4-yl)-1H-pyrazol-4-yl)amino)pyrimidin-4-yl)-N-(1-cyanoethyl)benzamide] | 7.73 | – | 27.5 µL/min/mg | 54.8 µL/min/mg | 8.27 | – | 951 ng·h/mL | 0.7 L/kg | 17.5 mL/min/kg | 27.6 min | F ([5]; 10 mg/kg): 11.99%; AUC ([5]; male, rat, plasma, 10 mg/kg): 1090 ng·h/mL; Cmax ([5]; male, rat, plasma, 10 mg/kg): 346 ng/mL; half-life ([5]; male, rat, plasma, 10 mg/kg): 106 min
Cc1cnc(Nc2cnn(C)c2)nc1-c1ccc(C(=O)NCC(C)(C)C#N)cc1 [Example 13, N-(2-Cyano-2-methylpropyl)-4-(5-methyl-2-((1-methyl-1H-pyrazol-4-yl)amino)pyrimidin-4-yl)benzamide] | 7.46 | 7.10 | 120 µL/min/mg | 1.5 µL/min/mg | – | 7.24 | 880 ng·h/mL | 0.6 L/kg | 18.9 mL/min/kg | 21.6 min | pIC50 (JAK2; IC50 JAK2 ([…]) (Km ATP), Km ATP): 8.57
